Laboratory results as given in paper PMC9918900, “New Succinimide–Thiazolidinedione Hybrids as Multitarget Antidiabetic Agents: Design, Synthesis, Bioevaluation, and Molecular Modelling Studies” (Molecules, 2023).

How the values were obtained:
[1] = tested on: streptozotocin-induced diabetic rats; experiment: in vivo antidiabetic activity, fasting plasma glucose level; parameters: species or system Wistar rats; details: STZ-induced diabetic rats, 28th day
Procedure: (§1) The antidiabetic activity of the synthesized compound 10d was evaluated using a streptozotocin-induced diabetic rats model.
(§2) Male Wistar rats weighing 150 to 230 gm were used for the study which were housed in polyacrylic cages (no more than six animals per cage) with dimensions of 38 × 23 × 10 cm and maintained under standard laboratory conditions with a dark/light cycle of 14 h of dark and 10 h of light at a temperature of 25 °C. The animals were provided with a standard diet (dry pellet) and water ad libitum. Before the start of the experimental procedures, the rats were acclimatized to laboratory conditions for 10 days. All the experiments were approved and performed as per the guidelines of the Departmental Research Ethics Committee under letter No. DREC/050 [49].
(§3) Non-insulin-dependent diabetes mellitus was induced in fasted rats weighing 150–230 gm using a single dose of streptozotocin (STZ) at a dose of 60 mg/kg intraperitoneally after 15 min of the administration of nicotinamide at a 120 mg/kg dose i.p. Nicotinamide was prepared in normal saline while in citrate buffer (pH 4.5), STZ was prepared. After the induction of diabetes, the increase in the plasma glucose level was measured at 72 h and then measured on the 7th day to confirm hyperglycemia. For the diagnosis of diabetes, the threshold value of the fasting plasma glucose level was considered to be more than 126 mg/dl. For the study, only the animals with permanent NIIDM were utilized.
The animals were classified into 5 groups with 6 animals in each group (n = 6). […] The fasting glucose concentration was measured on the 0, 7th, 14th, and 28th day of the administration of the extract. During the experimental tenure, the weights of the rats were determined daily and the mean change was recorded.

human DPP-4 enzyme = target: T1, human DPP-4 enzyme (Homo sapiens, UniProt P27487); experiment: DPP-4 activity bioassay; assay type: biochemical
T1 construct: purchased
T1 sequence (P27487 whole entry): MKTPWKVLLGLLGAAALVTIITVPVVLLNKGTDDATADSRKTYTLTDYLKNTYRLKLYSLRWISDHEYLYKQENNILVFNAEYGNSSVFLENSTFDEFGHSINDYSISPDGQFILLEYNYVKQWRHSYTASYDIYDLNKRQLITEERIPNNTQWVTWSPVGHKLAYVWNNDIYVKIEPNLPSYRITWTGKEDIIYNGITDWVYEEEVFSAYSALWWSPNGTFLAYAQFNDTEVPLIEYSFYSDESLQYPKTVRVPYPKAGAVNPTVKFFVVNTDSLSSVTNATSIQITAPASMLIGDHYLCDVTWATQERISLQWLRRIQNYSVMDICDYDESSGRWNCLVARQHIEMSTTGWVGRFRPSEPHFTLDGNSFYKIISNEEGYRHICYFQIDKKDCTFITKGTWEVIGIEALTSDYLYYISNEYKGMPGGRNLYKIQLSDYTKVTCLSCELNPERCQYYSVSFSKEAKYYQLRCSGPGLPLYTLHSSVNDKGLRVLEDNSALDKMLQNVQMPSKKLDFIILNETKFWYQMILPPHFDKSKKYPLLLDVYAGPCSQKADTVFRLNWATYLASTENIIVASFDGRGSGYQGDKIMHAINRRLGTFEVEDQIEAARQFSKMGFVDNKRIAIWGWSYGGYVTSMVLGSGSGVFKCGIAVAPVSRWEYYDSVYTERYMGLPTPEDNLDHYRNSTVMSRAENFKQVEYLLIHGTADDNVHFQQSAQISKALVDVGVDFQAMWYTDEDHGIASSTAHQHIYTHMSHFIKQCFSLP
Procedure: All succinimides and thiazolidinedione hybrids were tested for DPP-4 inhibitory effects on a human DPP-4 enzyme using the methodology published before. The DPP-4 kit was used to measure the inhibition. L-thiazolidine (P32/98) was included as a reference. The hybrids and DPP-4 enzyme were both adulterated 1/50 in the assay buffer (PH = 7.4, 25 mM Tris). Following that, a microplate well was filled with 5 μL of assay buffer, 3 μL of enzyme solution, and 2 μL of adequately diluted test chemical solutions. After a 12-min incubation period at 37.5 °C, a diluted substrate solution of 25 μL was added into the solution. A multi-mode reader was used to assess the fluorescence. […] PRISM5 was used to calculate the IC50 values and compare the inhibition ratio to the control without the inhibitor.

[2] = tested on: streptozotocin-induced diabetic rats; experiment: liver and renal serum biomarkers; assay type: in vivo, Wistar rats; details: 28th day
Procedure: as §3
(§4) The animals were classified into 5 groups with 6 animals in each group (n = 6). Group I comprised of normal control rats which were daily administered drinking water only; group II served as diabetic control rats (disease group); group III served as the positive control and were administered 0.5 mg/kg of the standard drug glibenclamide; and group IV and V served as the test group rats and were administered the test compound 10d at 10 mg/kg and 20 mg/kg, respectively, for twenty-eight days. The fasting glucose concentration was measured on the 0, 7th, 14th, and 28th day of the administration of the extract. During the experimental tenure, the weights of the rats were determined daily and the mean change was recorded.
The animals were euthanized (sacrificed) via cervical dislocation on the 28th day to observe the biochemical parameters. The parameters studied were triglyceride (TGL), cholesterol, low-density lipoprotein, and high-density lipoprotein (LDL and HDL). The Minias Globe Diagnostic kits were used for cholesterol and TGL. Semi-autoanalyzers were used for the analysis. The serum samples from the rats were also checked for alanine aminotransferase (ALT), aspartate aminotransferase (AST), lactate dehydrogenase (LDH), serum alkaline phosphatase (ALP), and creatinine and urea levels utilizing commercially available kits of Crest Biosystems. The statistical analysis was also performed as per the previous procedure.

[3] = tested on: streptozotocin-induced diabetic rats; experiment: effect on body weight; assay type: in vivo, Wistar rats; details: for Change in Body Weight, After Treatment: 28 days
Procedure: as §1, §2, §3, §4

rats = experiment: acute oral toxicity study, limit test (OECD up and down procedure); assay type: in vivo
Procedure: For the acute toxicity study, a limit test on the laboratory animals at 2000 mg/kg body weight was selected and the up and down procedure (UDP) was followed as per the guidelines of the Organization for Economic Cooperation and Development (OECD). The purpose was to evaluate the dose necessary to perform various pharmacological activities.
Healthy young adult male rats of about 8 to 12 weeks old were selected for dosing.
The rats were randomly selected, marked for an individual identification, and retained in their cages for at least 5 days before dosing to acclimatize to the laboratory conditions. Prior to dosing, the animals were fasted and they were refrained from food, not water, for 16–18 h.
After the fasting period, the weight of each animal was determined and according to the body weight of the animals, the dose at 2000 mg/kg body weight was calculated for each animal. A unique dose of the studied compound 10d was administered to the animals for the UDP study by the oral route using an intragastric cannula 16 G, and it was planned to dose the five animals on the same day. […] The onset time, toxic reactions, and length of the recovery period determined the duration of the observation and when considered necessary, may be extended. […] Individual observations were recorded and maintained systematically for each animal. […]

[4] = tested on: streptozotocin-induced diabetic rats; experiment: serum insulin level estimation; assay type: in vivo, Wistar rats; parameters: unit not given here; details: for Insulin Level (Mean ±SEM), Final Reading: 28th day
Procedure: as §3, §4
After the 28th day of treatment with the test compound 10d, the blood samples were taken for the determination of the insulin levels, which were measured with the help of GLAZYME INSULIN-EIA TEST.

CC(C)(C=C1SC(=O)N(C(=O)CN2CCOCC2)C1=O)C1CC(=O)N(Cc2ccccc2)C1=O (centres unmarked) [10d]
blood glucose level ([1]; 10 mg/kg): 93.15 mg/dL | blood glucose level ([1]; 20 mg/kg): 70.60 mg/dL | inhibition at 31.25 µM (human DPP-4 enzyme; 31.25 µM, read-out: DPP4 (inhibition) (converted)): 71.4% | inhibition at 62.5 µM (human DPP-4 enzyme; 62.5 µM, read-out: DPP4 (inhibition) (converted)): 76.5% | inhibition at 125 µM (human DPP-4 enzyme; 125 µM, read-out: DPP4 (inhibition) (converted)): 81.4% | inhibition at 250 µM (human DPP-4 enzyme; 250 µM, read-out: DPP4 (inhibition) (converted)): 85.3% | inhibition at 500 µM (human DPP-4 enzyme; 500 µM, read-out: DPP4 (inhibition)): 91.4 ± 1.49% | IC50 (human DPP-4 enzyme; read-out: IC50 DPP4): 4.22 µM | ALP ([2]; 10mg (10 mg/kg)): 184.43 ± 3.83 U/L | ALT ([2]; 10mg (10 mg/kg)): 136.80 ± 2.15 U/L | AST ([2]; 10mg (10 mg/kg)): 123.40 ± 3.70 U/L | Creatinine ([2]; 10mg (10 mg/kg)): 0.51 ± 0.57 ^ns mg/dl | LDH ([2]; 10mg (10 mg/kg)): 930.11 ± 4.26 U/L | Urea ([2]; 10mg (10 mg/kg)): 75.26 ± 2.44 mg/dL | ALP ([2]; 20mg (20 mg/kg)): 122.80 ± 2.00 U/L | ALT ([2]; 20mg (20 mg/kg)): 60.42 ± 2.20 U/L | AST ([2]; 20mg (20 mg/kg)): 94.32 ± 2.30 U/L | Creatinine ([2]; 20mg (20 mg/kg)): 0.42 ± 0.31 ^ns mg/dl | LDH ([2]; 20mg (20 mg/kg)): 850.53 ± 4.41 U/L | Urea ([2]; 20mg (20 mg/kg)): 51.53 ± 2.23 mg/dL | Change in Body Weight, After Induction ([3]; 10mg (10 mg/kg) group): 154.22 ± 3.62 gm | Change in Body Weight, Before Induction ([3]; 10mg (10 mg/kg) group): 191.23 ± 1.50 ^ns gm | Change in Body Weight, After Treatment ([3]; 10mg (10 mg/kg) group): 182.43 ± 5.76 gm | Change in Body Weight, After Induction ([3]; 20mg (20 mg/kg) group): 171.60 ± 1.90 ^ns gm | Change in Body Weight, Before Induction ([3]; 20mg (20 mg/kg) group): 204.66 ± 3.60 gm | Change in Body Weight, After Treatment ([3]; 20mg (20 mg/kg) group): 198.19 ± 4.66 gm | acute toxicity observation (behavior, mortality) (rats; limit dose 2000 mg/kg body weight, observed 14 days): no abnormal changes in their behavior and no mortality | LD50 class as per OECD guidelines (rats; maximum dose 2000 mg/kg): class IV | Insulin Level (Mean ±SEM), Initial Reading ([4]; 10mg (10 mg/kg) group): 0.81 ± 0.25 | Insulin Level (Mean ±SEM), Final Reading ([4]; 10mg (10 mg/kg) group): 0.65 ± 0.57 | Insulin Level (Mean ±SEM), Initial Reading ([4]; 20mg (20 mg/kg) group): 0.76 ± 0.38 | Insulin Level (Mean ±SEM), Final Reading ([4]; 20mg (20 mg/kg) group): 0.76 ± 0.81
